Assay results reported in patent US6403631B1, “Method and compositions for enhancing pregnancy success in an animal” (Equitech Laboratories, Inc., priority 1995, dated 2002).

Experiments:
[1] = test system: conceptus membrane segments; assay: In vitro estradiol production by day 16 conceptus membrane segments (Example 7); type: cell-based, mares
Protocol: Treatment with melatonin at estrus results in greater in vitro estradiol biosynthetic capability of day 16 conceptus membrane segments given androgen precursors. […] The extra-embryonic membranes were dissected into 4×4 mm^2 segments and cultured in the presence or absence of supplemental testosterone. Conceptus membrane fragments were cultured for 24 hours and the culture medium analyzed for estradiol.
Results and conclusions. Following completion of culture, conceptus membrane segments were frozen and assayed for DNA content. All estradiol concentrations measured in culture media were then adjusted for the DNA content of the appropriate conceptus membrane segment.

cyclic pony mares [2] = assay: Melatonin at proestrus: plasma melatonin (RIA), E2, P4, LH (Example 2); settings: 100 μg at proestrus
Protocol: Treatments were administered at 09:59:45 at proestrus only. Test animals were divided into two groups: control (1.0 ml 0.9% saline, n=3), and melatonin (100 μg melatonin in 1.0 ml 0.9% saline, n=3). Ovarian follicular activity was monitored daily by rectal palpation and/or ultrasonography. Blood samples were collected every 10 minutes for a period of 8 hours at proestrus, estrus, and diestrus. Plasma melatonin concentrations were measured by radioimmunoassay (RIA) to determine the effect of control and melatonin treatments administered at proestrus.

corpus luteum = assay: Corpus luteum biopsy morphology after melatonin at estrus (Example 9); type: in vivo, mares; settings: light and electron microscopy
Description: Following collection of conceptuses as described in Examples 7 and 8, mares were taken to surgery and the corpus luteum biopsied. Biopsies were taken from each mare, control and melatonin-treated, for both light and electron microscopy.

pony mares = assay: Bolus melatonin at estrus: plasma E2, P4, LH and cycle length (Example 1A); type: in vivo
Protocol: A. Effect of bolus administration of melatonin on estradiol, progesterone, and luteinizing hormone levels. The effect of bolus melatonin administration during estrus on plasma estradiol (E2), progesterone (P4), and luteinizing hormone (LH) was determined. The interval from treatment to ovulation (OV1) and duration of the subsequent estrous cycle, ending at OV2, were also measured. Estrous cycles of eight pony mares were synchronized. Ovarian follicular activity was monitored daily, and sexual behavior was monitored with a stallion. Blood samples were collected daily. Upon detection of behavioral estrus and a 30 mm diameter follicle, mares were assigned to either a control group or melatonin group. Blood samples were collected for 8 hours (09:00 to 17:00) at 30 minute intervals. Melatonin-group mares were given an injection of 100 μg melatonin in 1 ml of sterile saline into the jugular vein, while control-group mares received 1 ml sterile saline.

accessory corpora lutea = assay: Multiple melatonin administrations: accessory corpora lutea progesterone (Example 6); type: in vivo, mares; settings: treatment just prior to formation of accessory corpora lutea (day 35-45 of pregnancy)
Description: Mares are unique in that they develop and ovulate a new cohort of follicles around day 35-45 of pregnancy. […] Mares which received melatonin treatment at estrus also received daily melatonin treatment from day +35 to day +45 of pregnancy.

ewes [3] = assay: Bolus melatonin at estrus in ewes: plasma progesterone (Example 12); type: in vivo; settings: 400 μg i.v., 2 to 3 doses at estrus; Day 5 to Day 15 post-estrus; vs saline
Protocol: A. Effect of bolus administration of melatonin on progesterone levels. The effect of bolus melatonin administration during estrus on plasma progesterone was determined. The duration of the estrous cycle was also measured. Estrous cycles of ten ewes were monitored by daily behavioral monitoring with a vasectomized ram. […] Blood samples were collected daily for an entire estrous cycle. Melatonin-treated ewes (n=5) were administered 400 μg melatonin i.v. in the early morning (07:30 to 08:30hr) and late afternoon (16:30 to 17:30hr). Five ewes were treated similarly, but were administered saline as control at the same times. Estrus duration was approximately 24 to 36 hr, thus ewes were administered 2 to 3 doses of melatonin to assure treatment during estrus. Progesterone levels were higher from Day 5 to Day 15 post-estrus in melatonin-treated ewes compared with saline-treated ewes. The increased progesterone concentrations following administration of melatonin, as compared to a saline control, is shown in FIG. 5B.

cyclic pony mares [4] = assay: Melatonin at proestrus or estrus: plasma hormones in the subsequent cycle (Example 3); type: in vivo
Protocol: Blood samples were collected every 30 minutes and were collected daily through the next subsequent estrus and ovulation.

ewes [5] = settings: orally administered to ewes; cited from earlier work
hysterectomized mares = assay: Melatonin at estrus, morning v. afternoon, in hysterectomized mares: plasma progesterone (Example 5); type: in vivo
Protocol: Because hysterectomized mares are unable to generate a luteolytic secretion of prostaglandin F2α (PGF), luteal function and progesterone production continue longer than in uterine-intact mares.
The experiment was repeated in full using the same design with the exception that melatonin or control injections were administered in the afternoon rather than the morning. Blood samples were collected daily from day of treatment for 30 days post-ovulation.

[6] = test system: human and bovine granulosa cells; settings: in vitro; cited from earlier work
mares [7] = assay: Melatonin at mid-diestrus: plasma progesterone (Example 4); type: in vivo; settings: 100 μg on day 8 post-ovulation
Protocol: Treatments were given at 10:59:45. Daily blood sampling was performed from estrus preceding treatment to 7 days after the next subsequent ovulation. Blood samples were collected every 30 minutes for 10 hours each day of sampling.

sheep = settings: subcutaneous, multiple daily administrations; cited from earlier work
cows = assay: Melatonin in cows: plasma progesterone (FIG. 5A); type: in vivo; settings: vs saline control, initial results
Description: FIGS. 5A and 5B show the effect on plasma progesterone (P4) concentration (ng/ml), compared to a saline control, following administration of melatonin to cows and ewes in accordance with the subject invention.

marmoset corpus luteum = settings: in vivo perfusion, marmosets; cited from earlier work
mares [8] = assay: Bolus melatonin at estrus: conception, plasma progesterone and conceptus diameter (Example 1B); type: in vivo; settings: 100 μg at estrus
Protocol: B. Effect on conception of bolus administration of melatonin during estrus. […] Pregnancy was monitored by ultrasonography after day 10 post-ovulation. Blood samples were collected daily from the day of treatment to day 16 post-ovulation, when conceptuses were removed. Conceptus diameter was measured daily beginning day 10 post-ovulation with ultrasound.

[9] = test system: corpora lutea segments from cycling mares; assay: In vitro progesterone production by corpus luteum segments (Example 8); type: cell-based; settings: 1, 10 or 100 nM melatonin; presence or absence of 100 ng hCG
Protocol: Corpus luteum tissue was collected surgically and was dissected into segments approximately 2×2 mm^2. Segments were incubated in the following manner: [table] At completion of culture, segments were frozen until assayed for DNA content. All media progesterone concentrations were subsequently adjusted for DNA content of the appropriate segment.

[10] = 100 μg i.v. at estrus, vs control

Q: With `C[C@]12CC[C@H]3[C@@H](CCC4=CC(=O)CC[C@@]43C)[C@@H]1CC[C@@H]2O` [Testosterone, testosterone] as the molecule, how does the “estradiol production by conceptuses in vitro” value ([1]; testosterone supplied to the culture) read?
A: significantly increased

Q: Which results are given for `COc1ccc2[nH]cc(CCNC(C)=O)c2c1` [melatonin, N-acetyl-5-methoxytryptamine]?
A: estradiol concentrations in culture media, adjusted for DNA content ([1]; conceptuses from mares treated at estrus, no supplemental testosterone, 24 hours culture): did not differ; estradiol production in vitro, adjusted for DNA content ([1]; conceptuses from mares treated at estrus, with testosterone, p=0.01 vs all other groups): greater; plasma LH concentrations (cyclic pony mares [2]; 8-hour proestrus sampling, vs control): not different; plasma melatonin concentrations vs control (cyclic pony mares [2]; by 3 hours post-treatment): not different; plasma estradiol concentrations over 8-hour sampling at proestrus (cyclic pony mares [2]; no change in controls): decreased following treatment; mean plasma progesterone (P4) concentrations (cyclic pony mares [2]; sampled at diestrus, p=0.001 vs control): significantly higher; mean plasma estradiol concentrations (cyclic pony mares [2]; sampled at estrus, p=0.006 vs control): lower; mean plasma estradiol concentrations (cyclic pony mares [2]; sampled at proestrus or diestrus, vs control): not different; mean plasma progesterone (P4) concentrations (cyclic pony mares [2]; sampled at proestrus or estrus, vs control): not different; plasma melatonin concentrations after administration (cyclic pony mares [2]; vs control, p=0.0001, RIA): higher; corpus luteum morphology (corpus luteum): greater percent of cells with pleomorphic nuclei; pattern of E2 over the cycle (pony mares; 100 μg i.v. at estrus, control pattern cubic, increases at OV1 and OV2): quadratic, with increases noted only at OV2; plasma P4 levels vs control (pony mares; 100 μg i.v. at estrus, p<0.007): higher; duration of subsequent estrous cycle (OV1 to OV2) (pony mares; [10]): did not differ between groups; interval from treatment to OV1 (pony mares; [10]): did not differ between groups; plasma LH levels (pony mares; [10]): not different between groups; plasma E2 secretion following administration (pony mares; 100 μg melatonin i.v. at estrus, 8 h sampling, p<0.001): declined; progesterone production by accessory corpora lutea (accessory corpora lutea): enhanced progesterone production; progesterone levels (ewes [3]): higher; plasma estradiol concentrations at time of treatment (cyclic pony mares [4]; 100 μg at estrus): acute decline; estradiol concentrations during subsequent estrous cycle (cyclic pony mares [4]; 100 μg at proestrus or estrus, p=0.001 vs control): different; plasma progesterone response, ovulation through next ovulation (cyclic pony mares [4]; 100 μg at proestrus or estrus, p=0.007 vs control): higher; plasma LH concentrations (cyclic pony mares [4]; 100 μg at proestrus or estrus, vs controls): did not differ; treatment at proestrus compared with treatment at estrus (cyclic pony mares [4]; 100 μg melatonin): not different; plasma progesterone, standardized analysis (cyclic pony mares [4]; ovulation to day 7 and backwards from next ovulation, p=0.01 vs control): higher; plasma progesterone concentrations (ewes [5]): increased; plasma progesterone concentrations (hysterectomized mares; 100 μg at estrus, morning or afternoon, p<0.03 vs control): higher; plasma progesterone, melatonin-treated vs saline-treated mares (hysterectomized mares; at approximate time of luteal regression (day 14 to 16)): no longer detectable differences; production of progesterone [6]: enhanced; plasma progesterone concentrations during 10-hour sampling period (mares [7]): did not alter; plasma progesterone concentrations throughout rest of luteal phase (mares [7]): Nor were plasma progesterone concentrations different; plasma progesterone concentrations following next subsequent ovulation (mares [7]; until day 7 post-ovulation, p=0.034): higher; progesterone concentrations (sheep): increased; plasma progesterone (P4) concentrations (cows): no effect; progesterone production by corpus luteum (marmoset corpus luteum): stimulated; plasma progesterone concentrations (mares [8]; bred mares, to day 16 post-ovulation, p=0.026 vs control): increased; conceptus diameter (mares [8]; day 13 to 15 post-ovulation, vs control): larger; early embryonic growth rate (mares [8]; days 10 to 13 post-ovulation, ultrasound): did not appear to differ; media progesterone concentrations, adjusted for DNA content [9]: no effect
